Reference: PubChem BioAssay AID179 (DTP/NCI, 2004)
Calls of active or inactive are those of the source.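 Rule for the calls: active = compounds giving half or more protection of infected cells from virus-caused growth loss, again on retest; inactive = the rest.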

System: CEM cells HIV-1 protection, formazan growth assay
Experiment: NCI AIDS Antiviral Assay
Conditions: for IC50: measured here: growth of uninfected CEM cells
In short: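 Five concentrations of each compound were applied to infected and uninfected human CEM cells. Protection from HIV-1 was judged from growth measured with a soluble formazan assay.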

O=C(O)c1cc(O)c2ccc(N=Nc3ccc(/C=C/c4ccc(N=Nc5ccc6c(O)cc(C(=O)O)nc6c5O)cc4S(=O)(=O)O)c(S(=O)(=O)O)c3)c(O)c2n1
EC50: 10.2 µM | IC50: 50.1 µM

C=C1CC(c2ccc(OCCCN3C(=O)c4ccccc4C3=O)c(OC)c2)OC1=O (stereo not given)
EC50: > 20 µM | IC50: 0.912 µM

O=C(O)Cc1ccc2c(c1)sc1nc(-c3ccc(Br)cc3)cn12
EC50: > 200 µM | IC50: 141 µM

CN(CCSSCCN(C)C(N)=S)C(N)=S
EC50: > 200 µM | IC50: > 200 µM

O=c1c2ccccc2nc(N/N=C/c2ccc([N+](=O)[O-])cc2)n1-c1ccccc1
EC50: > 50.1 µM | IC50: > 50.1 µM

O=C1/C(=C/c2cc3c(=O)c4ccccc4sc3s2)NC(=S)N1c1ccccc1
EC50: > 200 µM | IC50: > 200 µM

COC(=O)c1cc2c3ccccc3n(C(C)=O)c2cn1
outcome: inactive

O=C(/C=N/O)Nc1ccc(Cl)c(I)c1
EC50: > 79.4 µM | IC50: 64.6 µM

Clc1ccccc1CN1COc2c(ccc3ccccc23)C1
EC50: > 200 µM | IC50: 28.8 µM

O=S1CC(c2ccccc2)=C(c2ccccc2)CS1 (stereo not given)
EC50: > 200 µM | IC50: 47.9 µM

O=C(COC(=O)c1cccc2c(=O)c3ccccc3[nH]c12)Nc1ccc(S(=O)(=O)Nc2ncccn2)cc1
outcome: inactive

CCCCP(CCCC)(CCCC)=C(C(=O)OC)C(C(=O)OC)=C1SC(C(=O)OC)=C(C(=O)OC)S1
EC50: > 200 µM | IC50: 33.1 µM

Cc1cc(=O)[nH]c(NNC(C#N)c2ccc(N(C)C)cc2)n1 (stereo not given)
EC50: > 63.1 µM | IC50: > 63.1 µM

CN(C)P(=O)(OP(=O)(N(C)C)N(C)C)N(C)C
EC50: > 200 µM | IC50: > 200 µM

Cc1cc(O)cc2oc(=O)c3c(O)cc(O)cc3c12
EC50: > 479 µM | IC50: 12.6 µM

CC[N+]1(C)CCC(O)(c2ccc(OC)cc2)C(C(=O)c2ccc(OC)cc2)C1 (stereo not given)
EC50: > 200 µM | IC50: 10.2 µM

CC(=O)Nc1ccc(S(=O)(=O)N/N=C/c2ccc(C)cc2)cc1
EC50: > 398 µM | IC50: > 398 µM

CN(C)Cc1cc(/C=C/C(=O)c2ccc(Br)cc2)cc(CN(C)C)c1O
EC50: > 200 µM | IC50: 10.5 µM

CC(=O)C(CCC(=O)O)(CCC(=O)O)C(C)C
EC50: > 1020 µM | IC50: > 1020 µM

O=C(NO)c1ccc(C(=O)NO)c(Br)c1
outcome: inactive

CCOC(=O)[C@]12C(=C(c3ccccc3)O[C@H]3C=CCC[C@H]31)C(=O)C(=O)N2c1ccccc1
EC50: > 200 µM | IC50: 75.9 µM

O=S(=O)(O)c1ccc(O)c2ncc(Cl)cc12
EC50: > 200 µM | IC50: > 200 µM

O=C1[C@@H]2C(c3ccccn3)=NO[C@@H]2C(=O)N1c1ccc(Cc2ccc(N3C(=O)[C@H]4C(c5ccccn5)=NO[C@H]4C3=O)cc2)cc1
EC50: > 8.71 µM | IC50: > 8.71 µM

COc1ccc(C[C@]23CCC(=O)N2CCc2cc(OC)c(O)cc23)cc1O
outcome: inactive

FC(F)(F)C(C1=NC(C(F)(F)F)(C(F)(F)F)N=C(N2CCOCC2)O1)C(F)(F)F
EC50: > 2 µM | IC50: > 2 µM

CS(=O)(=O)c1c(N)c2nc(Cl)cn2c2nc3ccccc3nc12
EC50: > 5.75 µM | IC50: > 5.75 µM

CCSc1ccc2c3c(cccc13)C(=O)N(CCc1ccccn1)C2=O
EC50: > 200 µM | IC50: > 200 µM

Cc1ccccc1NC(=O)Cc1csc2[n+]1C(=O)/C(=C/c1ccc([N+](=O)[O-])cc1)S2
EC50: > 200 µM | IC50: 38.9 µM

COC(=O)CCc1c(Cc2ccc[nH]2)[nH]c(C(=O)OCc2ccccc2)c1C
EC50: > 200 µM | IC50: 30.9 µM

C=CC(C)(C)C(=C)C(=O)Nc1ccccc1I
EC50: > 200 µM | IC50: > 200 µM

N=c1ccn2c(n1)OC1C(OC(=O)C34CC5CC(CC(C5)C3)C4)C(COC(=O)C34CC5CC(CC(C5)C3)C4)OC12 (stereo not given)
outcome: inactive

COCOC1/C=C/CCCCC(=O)C(C)C#CC1 (stereo not given)
EC50: > 200 µM | IC50: 7.24 µM

C=C1C(=O)[C@@]23C(O)C[C@@H]4C(C)(C)CCC(O)C4(COC(C)=O)[C@@H]2CC[C@@H]1[C@H]3O (stereo not given in full)
EC50: > 631 µM | IC50: 0.372 µM

O=S(=O)(O)SCc1ccccc1CSS(=O)(=O)O
EC50: > 200 µM | IC50: > 200 µM

CC(C)(C)c1ccc(-n2c3nc(=O)n(-c4ccccc4CO)c(=O)c-3cc3ccccc32)cc1
EC50: > 200 µM | IC50: 23.4 µM

Cc1cn(C(C)OCCO)c(=O)[nH]c1=O (stereo not given)
EC50: > 200 µM | IC50: > 200 µM

CCCC(=O)n1[nH]c(=O)n(-c2ccc(Cl)cc2)c1=O
EC50: > 200 µM | IC50: > 200 µM

O=C1CN2C(c3ccccc3)=NN(c3ccc([N+](=O)[O-])cc3)C2(c2ccccc2)c2cc(Cl)ccc2N1CC1CC1 (stereo not given)
EC50: > 100 µM | IC50: > 100 µM

CCOC(=O)C(=Cc1cccc(Br)c1)C(=O)OCC
EC50: > 759 µM | IC50: 468 µM

CC(=O)O[C@]12CCCCCC1C1(O)C(O)CCC[C@H]12 (stereo not given in full)
EC50: > 200 µM | IC50: > 200 µM

O=C(c1ccccc1)C1CSS(=O)(=O)C1c1ccccc1 (stereo not given)
EC50: 27.5 µM | IC50: 91.2 µM

CN1CCN(C(=S)N(C(=O)c2cccs2)c2ccccc2)CC1
EC50: > 105 µM | IC50: > 105 µM

CC(C)=CCC/C(C)=C/CC/C(C)=C/CC/C=C(\C)CC/C=C(\C)CCC1SC1(C)C (stereo not given)
EC50: > 200 µM | IC50: > 200 µM

CCCCN(CCCC)CC1CC(C(C)(C)C)CCC1O (stereo not given)
EC50: > 200 µM | IC50: 19.5 µM

CCOC(=O)/C(=C/c1ccc(OC)c(OC)c1)C(=O)c1ccccc1
EC50: > 75.9 µM | IC50: 40.7 µM

O=C(Nc1ccccc1C(F)(F)F)OCCN1CCNC1=S
EC50: > 200 µM | IC50: > 200 µM

CC(=O)Nc1ccc(/C=c2\sc3nnc(/C=C/c4ccccc4)n3c2=O)cc1
EC50: > 93.3 µM | IC50: > 93.3 µM

Oc1ccc(Cn2c(-c3ccc(O)cc3)nc3ccccc32)cc1
EC50: > 794 µM | IC50: > 794 µM

O=c1[nH]nc(Cc2ccccc2)n1/N=C/c1ccncc1
EC50: 72.4 µM | IC50: 158 µM

COCN1C(=O)[C@@H]2CCCN2C(=O)c2cc([N+](=O)[O-])ccc21
EC50: > 200 µM | IC50: 102 µM

Cc1cn(C(CCO)CCO)c(=O)[nH]c1=O
EC50: > 200 µM | IC50: > 200 µM

O=C(O)CSc1n[nH]c(Cc2ccccc2)n1
EC50: > 1000 µM | IC50: > 1000 µM

CCOC(=O)c1c(-c2ccc(OC)cc2)c(C#N)c(=S)n(C2OC(COC(C)=O)C(OC(C)=O)C(OC(C)=O)C2OC(C)=O)c1-c1ccccc1 (stereo not given)
EC50: > 200 µM | IC50: 25.7 µM

Cc1[nH]n(C(=O)c2ccc(Cl)cc2)c(=O)c1/C=C1\C(O)=CC(=O)c2ccccc21
EC50: > 12.9 µM | IC50: > 12.9 µM

Cn1nnc2c(C(N)=O)ncn2c1=O
EC50: > 1290 µM | IC50: 776 µM

CCOC(=O)c1c(C)c(N=O)c2ccccn12
EC50: > 200 µM | IC50: 5.62 µM

CC(=O)OCC(OC(C)=O)C(OC(C)=O)C(OC(C)=O)C(/C=N\Nc1nc2ccccc2c(=O)[nH]1)OC(C)=O (stereo not given)
EC50: > 200 µM | IC50: > 200 µM

CCOC(=O)/C(=C\c1ccc(CO)o1)P(=O)(OCC)OCC
EC50: > 200 µM | IC50: 30.9 µM

O=C(N/N=C(/CCN1CCCC1)CC(c1ccccc1)c1c(O)c2ccccc2oc1=O)c1ccncc1 (stereo not given)
EC50: > 34.7 µM

CCOC(=O)C(=O)Nc1ccc(C)cc1C
EC50: > 1120 µM | IC50: 646 µM

CC1(CO)C2CC3CN(C(=O)c4ccccc4)C(C2)[C@]31C (stereo not given in full)
outcome: inactive

Cc1ccc(NC(=S)Nc2c(C)n(C)n(-c3ccccc3)c2=O)cc1
EC50: > 200 µM | IC50: > 200 µM

C1CN(SSN2CCOCC2)CCO1
EC50: > 200 µM | IC50: 126 µM

C=C(C(=O)O)C1CCC(CC/C=C(\C)CC/C=C(\C)CCC=C(C)C)CO1 (stereo not given)
EC50: > 200 µM | IC50: 6.17 µM

CCOc1ccc(C2=NN(CC)C(=O)C(C3C(=O)N(c4ccccc4)N=C3C)C2)cc1 (stereo not given)
EC50: > 120 µM | IC50: > 120 µM

CCC1CN2CCc3cc(OC)c(OC)cc3C2CC1CC1c2cc(OC)c(OC)cc2CCN1C(=O)CNC(=O)OC(C)(C)C (stereo not given)
outcome: inactive

CCC1(O)C(=O)OCc2c1cc(-c1ccc(Cl)cc1)nc2OC (stereo not given)
EC50: > 200 µM | IC50: > 200 µM

O=c1c2ccccc2c2c1c1c3ccccc3c(=O)c1c1c3ccccc3c(=O)c21
EC50: > 200 µM | IC50: > 200 µM

COc1cc2oc(-c3ccc4c(c3)OCO4)c(OC)c(=O)c2c(O)c1OC
EC50: > 100 µM | IC50: > 100 µM

C=C(C(=O)C(=O)Oc1ccc(Cl)cc1)C(=O)c1ccc(C)cc1
EC50: > 79.4 µM | IC50: > 79.4 µM

CON(C)c1nc(Cl)nc(Cl)n1
EC50: > 200 µM | IC50: > 200 µM

O=C(O)c1cc(Nc2nc(Cl)nc(Cl)n2)ccc1-c1c2ccc(=O)cc-2oc2cc(O)ccc12
EC50: 38 µM | IC50: 692 µM

NS(=O)(=O)c1ccc(NC(=O)c2cccc3cc4ccccc4nc23)cc1
EC50: > 79.4 µM | IC50: 4.79 µM

COc1cccc(C2NC(=O)N3C(c4cccc(OC)c4)NC(=O)N23)c1 (stereo not given)
EC50: > 200 µM | IC50: 89.1 µM

O=c1c2c3c(sc2nc2n1N=CN(c1ccc(Cl)cc1)C2)CCCC3
EC50: > 200 µM | IC50: 38 µM

O=C(O)C(O)(c1ccccc1)c1ccsc1 (stereo not given)
EC50: > 200 µM | IC50: > 200 µM

CC(C)CC1=CC(=O)CN(CCc2c[nH]c3ccccc23)C1
EC50: > 240 µM | IC50: 126 µM

C/C(=N\NC(=O)c1ccncc1)c1ccccc1F
EC50: > 977 µM | IC50: 617 µM

COc1ccc(/C=C2\N=C(N3CCCC(CO)C3)NC2=O)cc1 (stereo not given)
EC50: > 200 µM | IC50: > 200 µM

CCOC(=O)/C(=C\c1ccc2ccccc2c1)P(=O)(OCC)OCC
EC50: > 186 µM | IC50: 5.37 µM

COC(=O)/C=C/c1c(=O)c(C(=O)OC)cn2cnc3nc[nH]c3c12
EC50: > 50.1 µM | IC50: > 50.1 µM

Cc1cc(C)c2c(=N)c3ccccc3n(CCCCCCCCn3c4ccccc4c(=N)c4c(C)cc(C)nc43)c2n1
EC50: > 2 µM | IC50: 0.251 µM

CCOC(=O)c1nc2c(OC)nn(O)cc-2c1[N+](=O)[O-]
EC50: > 457 µM | IC50: 5.75 µM

CC(=O)Oc1ccc2cc(Oc3ccccc3)c(=O)oc2c1
EC50: > 200 µM | IC50: 85.1 µM

N#Cc1c2c(c(N=[N+]=[N-])n3c1nc1ccccc13)CCCC2
EC50: > 4.68 µM | IC50: > 4.68 µM

COc1cc2ccc3c(c2cc1OC)CCc1cn[nH]c1-3
EC50: > 9.77 µM | IC50: > 9.77 µM

CC(=O)Nc1cc(S(=O)(=O)O)cc2cc(S(=O)(=O)O)c(N=Nc3ccc(C(=O)Nc4ccc(S(=O)(=O)O)cc4)cc3)c(O)c12
outcome: inactive
